Results reported in ChEMBL document CHEMBL1147757, “Design and preparation of 2-benzamido-pyrimidines as inhibitors of IKK” (Bioorg Med Chem Lett, 2006).

Experiments:
[1] = target: T1, Inhibitor of nuclear factor kappa-B kinase subunit alpha (Homo sapiens, UniProt O15111); experiment: Inhibitory activity against IKK1
T1 sequence (O15111 whole entry): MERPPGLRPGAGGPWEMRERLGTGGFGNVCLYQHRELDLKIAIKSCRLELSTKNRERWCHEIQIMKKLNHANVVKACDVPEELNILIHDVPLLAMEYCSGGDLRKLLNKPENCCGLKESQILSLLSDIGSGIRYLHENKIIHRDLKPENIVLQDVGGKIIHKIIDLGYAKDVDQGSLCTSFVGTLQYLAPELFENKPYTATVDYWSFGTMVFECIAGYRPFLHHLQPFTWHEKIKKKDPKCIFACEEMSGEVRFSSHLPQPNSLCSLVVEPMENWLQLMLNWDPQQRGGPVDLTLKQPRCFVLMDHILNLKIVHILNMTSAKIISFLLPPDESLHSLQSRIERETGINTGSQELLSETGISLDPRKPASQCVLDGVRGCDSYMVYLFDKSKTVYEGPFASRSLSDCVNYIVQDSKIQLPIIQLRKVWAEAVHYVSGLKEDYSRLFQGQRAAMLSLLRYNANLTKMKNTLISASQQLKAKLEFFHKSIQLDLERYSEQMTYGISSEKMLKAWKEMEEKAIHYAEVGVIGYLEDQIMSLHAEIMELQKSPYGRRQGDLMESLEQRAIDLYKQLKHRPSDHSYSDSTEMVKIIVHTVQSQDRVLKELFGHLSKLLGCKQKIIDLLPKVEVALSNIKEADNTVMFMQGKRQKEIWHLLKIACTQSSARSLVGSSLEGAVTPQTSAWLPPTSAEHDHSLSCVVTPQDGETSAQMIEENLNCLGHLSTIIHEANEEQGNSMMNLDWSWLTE

[2] = target: T2, Inhibitor of nuclear factor kappa-B kinase subunit beta (Homo sapiens, UniProt O14920); experiment: Inhibitory activity against IKK2
T2 sequence (O14920 whole entry): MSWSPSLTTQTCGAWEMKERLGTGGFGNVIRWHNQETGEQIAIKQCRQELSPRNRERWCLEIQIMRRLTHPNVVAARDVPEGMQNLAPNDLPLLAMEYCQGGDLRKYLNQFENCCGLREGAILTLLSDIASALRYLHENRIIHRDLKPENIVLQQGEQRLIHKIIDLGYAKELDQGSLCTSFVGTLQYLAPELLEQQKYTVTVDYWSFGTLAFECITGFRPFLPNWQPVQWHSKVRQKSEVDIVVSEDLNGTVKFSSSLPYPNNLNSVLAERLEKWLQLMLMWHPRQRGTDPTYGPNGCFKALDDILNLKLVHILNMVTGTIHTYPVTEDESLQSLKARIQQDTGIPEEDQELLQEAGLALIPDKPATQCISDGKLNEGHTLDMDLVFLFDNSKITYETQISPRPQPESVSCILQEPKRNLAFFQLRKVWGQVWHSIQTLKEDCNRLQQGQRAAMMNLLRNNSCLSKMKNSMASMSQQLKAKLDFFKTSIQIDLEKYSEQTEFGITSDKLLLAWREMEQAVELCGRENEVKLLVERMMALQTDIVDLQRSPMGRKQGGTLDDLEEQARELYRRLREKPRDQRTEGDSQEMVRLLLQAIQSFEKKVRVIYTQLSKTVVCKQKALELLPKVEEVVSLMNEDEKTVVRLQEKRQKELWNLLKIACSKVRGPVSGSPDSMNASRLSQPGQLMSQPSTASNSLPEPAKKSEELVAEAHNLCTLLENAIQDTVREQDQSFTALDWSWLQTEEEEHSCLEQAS

[3] = target: T3, Inhibitor of NF-kappa-B kinase (IKK) (Homo sapiens, UniProt O14920+O15111+Q9Y6K9); experiment: Inhibitory activity against IKK complex isolated from HeLa cells; type: cell-based
T3 sequence (Q9Y6K9 whole entry, one chain of several): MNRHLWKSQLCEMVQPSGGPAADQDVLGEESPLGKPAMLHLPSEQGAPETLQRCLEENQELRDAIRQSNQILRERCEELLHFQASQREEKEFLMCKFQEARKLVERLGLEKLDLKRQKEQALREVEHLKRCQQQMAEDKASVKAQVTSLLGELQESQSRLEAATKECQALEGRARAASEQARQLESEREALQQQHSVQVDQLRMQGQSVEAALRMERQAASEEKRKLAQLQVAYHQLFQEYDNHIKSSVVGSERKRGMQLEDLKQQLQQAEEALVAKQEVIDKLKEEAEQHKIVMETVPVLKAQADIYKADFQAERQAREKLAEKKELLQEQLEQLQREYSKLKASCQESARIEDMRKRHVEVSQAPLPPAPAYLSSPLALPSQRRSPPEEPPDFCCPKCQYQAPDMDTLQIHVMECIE

[4] = target: T3, Inhibitor of NF-kappa-B kinase (IKK); experiment: Inhibition of TNF-alpha-stimulated IkappaBalpha degradation; type: functional
[5] = target: T3, Inhibitor of NF-kappa-B kinase (IKK); experiment: Inhibition of TNF-alpha-stimulated expression of E-selectin in HUVEC cells; type: functional, cell-based
[6] = target: T3, Inhibitor of NF-kappa-B kinase (IKK); experiment: Inhibition of TNF-alpha-stimulated expression of ICAM1 in HUVEC cells; type: functional, cell-based
[7] = target: T3, Inhibitor of NF-kappa-B kinase (IKK); experiment: Inhibition of TNF-alpha-stimulated expression of VCAM1 in HUVEC cells; type: functional, cell-based
[8] = Inhibition of IFN-gamma-stimulated expression of beta-2 microglobulin; type: functional
[9] = Inhibition of IFN-gamma-stimulated expression of HLA-DR; type: functional
[10] = system: Rattus norvegicus; experiment: Inhibition of LPS-induced TNFalpha release into plasma in rat at 30 mg/kg, sc; type: functional; settings: route subcutaneous
[11] = system: Rattus norvegicus; experiment: Inhibition of LPS-induced TNFalpha release into plasma in rat at 30 mg/kg, po; type: functional
[12] = target: T3, Inhibitor of NF-kappa-B kinase (IKK); experiment: Inhibition of LPS-induced TNFalpha release from human PBMC; type: functional
[13] = system: Mus musculus; experiment: Inhibition of thioglycollate-induced polymorphonuclear neutrophil release in mouse peritoneum at 10 mg/kg, sc; type: functional; settings: route subcutaneous

IC50 [1] [nM]	IC50 [2] [nM]	IC50 [3] [nM]	IC50 [4] [nM]	IC50 [5] [nM]	IC50 [6] [nM]	IC50 [7] [nM]	IC50 [8] [nM]	IC50 [9] [nM]	IC50 [12] [nM]	SMILES	inhibition in vivo at 30 mg/kg [10] [%]	inhibition in vivo at 30 mg/kg [11] [%]	inhibition in vivo at 10 mg/kg [13] [%]
30	40	40	–	–	–	–	–	–	–	CC(C)(N)CCc1ccc(-c2ccnc(Nc3ccc(C(=O)N4CCC(N5CCCC5)CC4)cc3)n2)s1	–	–	–
400	90	250	–	–	–	–	–	–	–	O=C(c1ccc(Nc2nccc(-c3cc4ccccc4s3)n2)cc1Cl)N1CCC(N2CCCC2)CC1	–	–	–
200	40	70	1000	500	300	300	2000	2000	300	O=C(c1ccc(Nc2nccc(-c3cc4ccccc4s3)n2)cc1)N1CCC(N2CCCC2)CC1	86	75	50
500	25	40	2000	200	200	200	5000	2500	–	O=C(c1ccc(Nc2nccc(-c3ccc(CCCCO)s3)n2)cc1)N1CCC(N2CCCC2)CC1	–	–	–
–	1000	–	–	–	–	–	–	–	–	O=C(O)c1cccc(Nc2nccc(-c3cc4ccccc4s3)n2)c1	–	–	–
150	40	80	2000	300	400	400	2000	2000	–	CN(C)C1CCN(C(=O)c2ccc(Nc3nccc(-c4cc5ccccc5s4)n3)cc2)CC1	–	–	–
1000	100	100	1000	400	600	500	5000	2000	–	COCCCc1ccc(-c2ccnc(Nc3ccc(C(=O)N4CCC(N5CCCC5)CC4)cc3)n2)s1	–	–	–
1200	200	300	5000	500	500	500	2000	–	–	CN(C)CCNC(=O)c1ccc(Nc2nccc(-c3cc4ccccc4s3)n2)cc1	–	–	–
–	2200	–	–	–	–	–	–	–	–	O=C(O)Cc1ccc(Nc2nccc(-c3cc4ccccc4s3)n2)cc1	–	–	–
–	> 100000	–	–	–	–	–	–	–	–	CC(C)CCNC(=O)c1ccc(Nc2nccc(-c3cc4ccccc4s3)n2)cc1	–	–	–
5000	600	18000	100000	50000	50000	50000	100000	100000	–	O=C(O)c1ccc(Nc2nccc(-c3cc4ccccc4s3)n2)cc1	–	–	–
3700	600	4400	–	–	–	–	–	–	–	NCCNC(=O)c1ccc(Nc2nccc(-c3cc4ccccc4s3)n2)cc1	–	–	–
1200	400	500	–	–	–	–	–	–	–	O=C(NCCN1CCCC1)c1ccc(Nc2nccc(-c3cc4ccccc4s3)n2)cc1	–	–	–
30000	150	800	–	–	–	–	–	–	–	CC(=O)NC(C)(C)CCc1ccc(-c2ccnc(Nc3ccc(C(=O)N4CCC(N5CCCC5)CC4)cc3)n2)s1	–	–	–
> 100000	> 100000	> 100000	–	–	–	–	–	–	–	O=C(O)c1ccccc1Nc1nccc(-c2cc3ccccc3s2)n1	–	–	–
100	50	150	–	–	–	–	–	–	–	COc1cc(Nc2nccc(-c3cc4ccccc4s3)n2)ccc1C(=O)N1CCC(N2CCCC2)CC1	–	–	–
500	150	200	–	–	–	–	–	–	–	CC(C)(N)C#Cc1ccc(-c2ccnc(Nc3ccc(C(=O)N4CCC(N5CCCC5)CC4)cc3)n2)s1	–	–	–
3800	900	8500	20000	2000	2000	2000	10000	250	–	O=C(c1ccc(Nc2nccc(-c3cc4ccccc4s3)n2)cc1)N1CCCC1	–	–	–
30	60	30	–	–	–	–	–	–	–	CCC(N)(CC)CCc1ccc(-c2ccnc(Nc3ccc(C(=O)N4CCC(N5CCCC5)CC4)cc3)n2)s1	–	–	–

SMILES	IC50 [1] [nM]	IC50 [2] [nM]	IC50 [3] [nM]	IC50 [4] [nM]	IC50 [5] [nM]	IC50 [6] [nM]	IC50 [7] [nM]	IC50 [8] [nM]	IC50 [9] [nM]	IC50 [12] [nM]	inhibition in vivo at 30 mg/kg [10] [%]	inhibition in vivo at 30 mg/kg [11] [%]	inhibition in vivo at 10 mg/kg [13] [%]
CC(C)(O)CCc1ccc(-c2ccnc(Nc3ccc(C(=O)N4CCC(N5CCCC5)CC4)cc3)n2)s1	700	50	50	2000	450	500	600	5000	3000	–	–	–	–
